The record followed here is patent publication US8853412B2, “Pyrrolidinone derivatives as GPR119 modulators for the treatment of diabetes, obesity, dyslipidemia and related disorders” (Sanofi, priority 2012, dated 2014).

Molecules are shown by their SMILES.

This test has as its target T1, human GPR119 (Homo sapiens, UniProt Q8TDV5).
T1 construct: expressed in transfected cells; host or cells: HEK-293 cell line stably expressing recombinant GPR119
T1 sequence (Q8TDV5 1-335): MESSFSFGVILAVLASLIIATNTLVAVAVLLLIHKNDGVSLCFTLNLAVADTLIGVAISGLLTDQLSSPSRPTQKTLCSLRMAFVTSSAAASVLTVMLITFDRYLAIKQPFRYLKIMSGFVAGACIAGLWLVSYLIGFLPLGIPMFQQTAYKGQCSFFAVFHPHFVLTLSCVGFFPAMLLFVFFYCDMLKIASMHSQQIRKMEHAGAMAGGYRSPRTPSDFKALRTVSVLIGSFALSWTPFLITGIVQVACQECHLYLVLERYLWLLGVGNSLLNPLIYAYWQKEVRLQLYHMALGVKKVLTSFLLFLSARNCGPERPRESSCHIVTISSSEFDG
In words: Functional cellular assay measuring GPR119-mediated cAMP release (HTRF), HEK-293 cells stably expressing recombinant GPR119. Format: cell-based. The following applies: cell line expressing human GPR119; cAMP response, 30 minutes at room temperature. How it is done: Functional Cellular Assays Measuring GPR119-Mediated cAMP Release.
Compounds of the invention, which are agonists of GPR119, were characterized by functional assays measuring the cAMP response of HEK-293 cell lines stably expressing recombinant GPR119 from man, mouse or rat, or by using a hamster cell line HIT-T15 expressing GPR119 endogenously. The cAMP content was determined using a kit based on homogenous time-resolved fluorescence (HTRF) from Cisbio Corp. (cat. no. 62AM4PEC). For preparation, cells were split into T175 culture flasks and grown to near confluency in medium (DMEM/10% FCS for HEK-293 cells, and F-12K medium/10% horse serum/2.5% FCS for HIT-T15 cells, respectively). Medium was then removed and cells washed with PBS lacking calcium and magnesium ions, followed by proteinase treatment with accutase (Sigma-Aldrich, cat. no. A6964). Detached cells were washed and resuspended in assay buffer (1×HBSS; 20 mM HEPES, 0.1% BSA, 2 mM IBMX) and cellular density determined. They were then diluted to 400000 cells/mL and 25 μL-aliquots dispensed to the wells of 96-well plates. For measurement, 25 μL of test compound in assay buffer was added and incubated for 30 minutes at room temperature. After addition of HTRF reagents diluted in lysis buffer, the plates were incubated for 1 hour, followed by measuring the fluorescence ratio at 665 vs. 620 nm. Potency of the agonists was quantified by determining the concentrations that caused 50% of the maximal response/activation (EC50). See Table 10 for exemplary data obtained using the cell line expressing human GPR119.
Turning to `CC(C)CCOc1ccc(OC2CCN(c3ccc4c(c3)C(=O)CC4)C2=O)cc1` (stereo not shown) [Example 1-01], the EC50 turned out to be 385 nM. Turning to `O=C1CCc2ccc(N3CCC(Oc4ccc(Oc5ccc(F)cc5)cc4)C3=O)cc21` (stereo not shown) [Example 1-02], the EC50 was 895 nM. On to `O=C1CCc2c(F)cc(N3CC[C@@H](Oc4ccc(Oc5ccc(F)cc5)cc4)C3=O)cc21` [Example 1-03], for which the EC50 came out at 33 nM. As to `O=C1CCc2ccc(N3CC[C@@H](Oc4ccc(Oc5ccccc5)cc4)C3=O)cc21` [Example 1-04], the 50% effective concentration (EC50) worked out at 145 nM. Next, `O=C1CCc2c(F)cc(N3CC[C@@H](Oc4ccc(OCCC5CC5)cc4)C3=O)cc21` [Example 1-05]: 45 nM. Turning to `O=C1CCc2ccc(N3CC[C@@H](Oc4ccc(Oc5ccc(F)cc5)nc4)C3=O)cc21` [Example 1-06], the half-maximal effective concentration (EC50) was found to be 274 nM. As for `O=C1CCc2c(F)cc(N3CC[C@@H](Oc4ccc(Oc5ccc(F)cc5)nc4)C3=O)cc21` [Example 1-07], the concentration giving a half-maximal response (EC50) was 87 nM. For the compound `O=C1CCc2c(F)cc(N3CC[C@@H](Oc4ccc(OCCC5CC5)nc4)C3=O)cc21` [Example 1-08, (R)-3-[6-(2-Cyclopropyl-ethoxy)-pyridin-3-yloxv]-1-(7-fluoro-3-oxo-indan-5-yl)-pyrrolidin-2-one], the EC50 came out at 8 nM. On to `O=C1CCc2ccc(N3CC[C@@H](Oc4ccc(OCCC5CC5)nc4)C3=O)cc21` [Example 1-09], for which the EC50 amounted to 64 nM. `O=C1CCCc2ccc(N3CC[C@@H](Oc4ccc(OCCC5CC5)nc4)C3=O)cc21` [Example 1-10]: the EC50 was 699 nM. Next, `O=C1CCc2c(F)cc(N3CC[C@@H](Oc4ccc(OCC5CC5)nc4)C3=O)cc21` [Example 1-11, (R)-3-(6-Cyclopropylmethoxy-pyridin-3-yloxy)-1-(7-fluoro-3-oxo-indan-5-yl)-pyrrolidin-2-one]: 8 nM. Next, `O=C1CCc2ccc(N3CC[C@@H](Oc4ccc(OCC5CC5)nc4)C3=O)cc21` [Example 1-12]: 327 nM.

Regarding `CSc1ccc(O[C@@H]2CCN(c3cc(F)c4c(c3)C(=O)CC4)C2=O)cn1` [Example 1-13], the EC50 was 368 nM. Turning to `CC(C)Sc1ccc(O[C@@H]2CCN(c3cc(F)c4c(c3)C(=O)CC4)C2=O)cn1` [Example 1-14], the concentration giving a half-maximal response (EC50) was found to be 33 nM. Regarding `CCSc1ccc(O[C@@H]2CCN(c3cc(F)c4c(c3)C(=O)CC4)C2=O)cn1` [Example 1-15], the EC50 turned out to be 70 nM.

Take `O=C1CCc2c(F)cc(N3CC[C@@H](Oc4ccc(-c5ncc(CO)s5)nc4)C3=O)cc21` [Example 1-16]: the 50% effective concentration (EC50) worked out at 3810 nM. Turning to `O=C1CCc2c(F)cc(N3CC[C@@H](Oc4ccc(OCc5ccccc5)nc4)C3=O)cc21` [Example 1-17], the EC50 worked out at 39 nM. With `O=C1CCc2c(Br)cc(N3CC[C@@H](Oc4ccc(OCC5CC5)nc4)C3=O)cc21` [Example 1-18], the EC50 was determined as 287 nM. Under `Cc1c(N2CC[C@@H](Oc3ccc(OCC4CC4)nc3)C2=O)cc(F)c2c1C(=O)CC2` [Example 1-19] stands 692 nM. Under `O=C1CCc2ccc(N3CC[C@@H](Oc4ccc(OC5CC5)nc4)C3=O)cc21` [Example 1-20] stands 87 nM. As for `COc1ccc(O[C@@H]2CCN(c3cc(F)c4c(c3)C(=O)CC4)C2=O)cn1` [Example 2-01], the EC50 was 223 nM. Regarding `CCCCOc1ccc(O[C@@H]2CCN(c3cc(F)c4c(c3)C(=O)CC4)C2=O)cn1` [Example 2-02], the EC50 worked out at 27 nM.

As for `O=C1CCc2c(F)cc(N3CC[C@@H](Oc4ccc(OC5CCOC5)nc4)C3=O)cc21` (stereo partly shown) [Example 2-03], the EC50 was 63 nM. `CC(C)(CO)COc1ccc(O[C@@H]2CCN(c3cc(F)c4c(c3)C(=O)CC4)C2=O)cn1` [Example 2-04]: the concentration giving a half-maximal response (EC50) was determined as 233 nM. Consider `COCC(C)Oc1ccc(O[C@@H]2CCN(c3cc(F)c4c(c3)C(=O)CC4)C2=O)cn1` (stereo partly shown) [Example 2-05], for which the EC50 worked out at 77 nM. Next, `CCCC(C)Oc1ccc(O[C@@H]2CCN(c3cc(F)c4c(c3)C(=O)CC4)C2=O)cn1` (stereo partly shown) [Example 2-06]: 18 nM; `O=C1CCc2c(F)cc(N3CC[C@@H](Oc4ccc(OC5CCOCC5)nc4)C3=O)cc21` [Example 2-07, (R)-1-(7-Fluoro-3-oxo-indan-5-yl)-3-[6-(tetrahydro-pyran-4-yloxy)-pyridin-3-yloxy]-pyrrolidin-2-one]: 45 nM. Under `CCOc1ccc(O[C@@H]2CCN(c3cc(F)c4c(c3)C(=O)CC4)C2=O)cn1` [Example 2-08, (R)-3-(6-Ethoxy-pyridin-3-yloxy)-1-(7-fluoro-3-oxo-indan-5-yl)-pyrrolidin-2-one] stands 17 nM; under `CC(Oc1ccc(O[C@@H]2CCN(c3cc(F)c4c(c3)C(=O)CC4)C2=O)cn1)C1CC1` (stereo partly shown) [Example 2-09], 16 nM; under `CCC(C)COc1ccc(O[C@@H]2CCN(c3cc(F)c4c(c3)C(=O)CC4)C2=O)cn1` (stereo partly shown) [Example 2-10], 5 nM. With `O=C1CCc2c(F)cc(N3CC[C@@H](Oc4ccc(OC5CCCOC5)nc4)C3=O)cc21` (stereo partly shown) [Example 2-11], the EC50 was found to be 29 nM. For `CC1(COc2ccc(O[C@@H]3CCN(c4cc(F)c5c(c4)C(=O)CC5)C3=O)cn2)COC1` [Example 2-12], the EC50 turned out to be 99 nM. On to `COCCOc1ccc(O[C@@H]2CCN(c3cc(F)c4c(c3)C(=O)CC4)C2=O)cn1` [Example 2-13], for which the EC50 amounted to 141 nM. Take `CCC(C)Oc1ccc(O[C@@H]2CCN(c3cc(F)c4c(c3)C(=O)CC4)C2=O)cn1` (stereo partly shown) [Example 2-14]: the concentration for a half-maximal effect (EC50) is 12 nM. Under `O=C1CCc2c(F)cc(N3CC[C@@H](Oc4ccc(OCCOCCO)nc4)C3=O)cc21` [Example 2-15] stands 289 nM; under `O=C1CCc2c(F)cc(N3CC[C@@H](Oc4ccc(OCCCCO)nc4)C3=O)cc21` [Example 2-16], 832 nM; under `CCCCCOc1ccc(O[C@@H]2CCN(c3cc(F)c4c(c3)C(=O)CC4)C2=O)cn1` [Example 2-17], 16 nM. For `CCCOc1ccc(O[C@@H]2CCN(c3cc(F)c4c(c3)C(=O)CC4)C2=O)cn1` [Example 2-18], the EC50 is 5 nM.

As for `O=C1CCc2c(F)cc(N3CC[C@@H](Oc4ccc(OC5CCC(O)C5)nc4)C3=O)cc21` (stereo partly shown) [Example 2-19], the 50% effective concentration (EC50) came out at 858 nM.

As for `CC(C)=CCOc1ccc(O[C@@H]2CCN(c3cc(F)c4c(c3)C(=O)CC4)C2=O)cn1` [Example 2-20], the concentration giving a half-maximal response (EC50) stood at 33 nM.

Take `O=C1CCc2c(F)cc(N3CC[C@@H](Oc4ccc(OCCn5cccn5)nc4)C3=O)cc21` [Example 2-21]: the 50% effective concentration (EC50) was determined as 456 nM. With `CC(C)CCOc1ccc(O[C@@H]2CCN(c3cc(F)c4c(c3)C(=O)CC4)C2=O)cn1` [Example 2-22], the concentration for a half-maximal effect (EC50) amounted to 9 nM. `CC(C)COc1ccc(O[C@@H]2CCN(c3cc(F)c4c(c3)C(=O)CC4)C2=O)cn1` [Example 2-23]: the concentration for a half-maximal effect (EC50) stood at 7 nM.

Consider `CC(C)Oc1ccc(O[C@@H]2CCN(c3cc(F)c4c(c3)C(=O)CC4)C2=O)cn1` [Example 2-24, (R)-1-(7-Fluoro-3-oxo-indan-5-yl)-3-(6-isopropoxy-pyridin-3-yloxy)-pyrrolidin-2-one], for which the EC50 came out at 13 nM.

For the compound `O=C1CCc2c(F)cc(N3CC[C@@H](Oc4ccc(OCC5CCCO5)nc4)C3=O)cc21` (stereo partly shown) [Example 2-25], the EC50 was 13000 nM. Next, `CC1CC1COc1ccc(O[C@@H]2CCN(c3cc(F)c4c(c3)C(=O)CC4)C2=O)cn1` (stereo partly shown) [Example 2-26]: 11 nM; `CCOCCOc1ccc(O[C@@H]2CCN(c3cc(F)c4c(c3)C(=O)CC4)C2=O)cn1` [Example 2-27]: 277 nM; `O=C1CCc2c(F)cc(N3CC[C@@H](Oc4ccc(OCc5ccncc5)nc4)C3=O)cc21` [Example 2-28]: 1410 nM. Regarding `O=C1CC[C@H](COc2ccc(O[C@@H]3CCN(c4cc(F)c5c(c4)C(=O)CC5)C3=O)cn2)N1` [Example 2-29], the half-maximal effective concentration (EC50) turned out to be 11600 nM. With `O=C1CC[C@@H](COc2ccc(O[C@@H]3CCN(c4cc(F)c5c(c4)C(=O)CC5)C3=O)cn2)N1` [Example 2-30], the concentration for a half-maximal effect (EC50) was determined as 16300 nM.

Turning to `O=C1CCc2c(F)cc(N3CC[C@@H](Oc4ccc(OCc5cccnc5)nc4)C3=O)cc21` [Example 2-31], the EC50 is 1470 nM. Under `O=C1CCc2c(F)cc(N3CC[C@@H](Oc4ccc(OCC5COCO5)nc4)C3=O)cc21` (stereo partly shown) [Example 2-32] stands 103 nM. Next, `COC(C)CCOc1ccc(O[C@@H]2CCN(c3cc(F)c4c(c3)C(=O)CC4)C2=O)cn1` (stereo partly shown) [Example 2-33]: 71 nM; `CCC(C)CCOc1ccc(O[C@@H]2CCN(c3cc(F)c4c(c3)C(=O)CC4)C2=O)cn1` (stereo partly shown) [Example 2-34]: 23 nM. In the case of `O=C1CCc2c(F)cc(N3CC[C@@H](Oc4ccc(OCC(F)F)nc4)C3=O)cc21` [Example 2-35], the EC50 was 26 nM.
